By IC50 is commonly meant the concentration that gives 50% inhibition.

This note sets out measurements from patent US20230265098A1, “ALKYNE QUINAZOLINE DERIVATIVES AS INHIBITORS OF ERBB2” (EnLiven Therapeutics, Inc., priority 2020, published 2023).

Bounds are passed on as bounds.

In assay [1] the target is T1, phosphorylated EGFR (pEGFR) (Homo sapiens, UniProt P00533).
T1 construct: endogenous in cells; host or cells: A431
Briefly: Detection of phosphorylated EGFR (pEGFR) in EGF-stimulated A431 cells (AlphaLISA). In kind it is cell-based. The note with it: A431 cells (10% FBS), 4 hours with compound, then EGF 30 ng/mL for 10 minutes. How it is done: Enzyme-linked immunosorbent assays (ELISA) were performed to measure phosphorylated EGFR levels using A431 cells (10% FBS). A431 (1.0*10^4 cells/40 μl/well) cells were seeded in 384 well. Compounds were dissolved in DMSO, serially diluted in DMSO and then were added, mixed, and incubated for 4 hours at 37° C., 5% CO2. Following the 4-hours incubation, cells were stimulated for 10 minutes with EGF (Invitrogen, cat #PHG0311) at a final concentration of 30 ng/mL in the incubator. The media was aspirated and cells were lysed in 10 μL lysis buffer with protease and phosphatase inhibitors (PerkinElmer, cat #ALSU-PEGFR-A50K). The plates were placed on a shaker for 5 minutes and then incubated for 30 min at 4° C. for complete lysis. The lysate was transferred to an Optiplate (Perkin Elmer, cat #6007290).
Acceptor mix (PerkinElmer, cat #ALSU-PEGFR-A50K) was prepared just before use and 5 μL was dispensed to all the wells, followed by a 1.5-2 h incubation at room temperature in dark. The donor mix (PerkinElmer, cat #ALSU-PEGFR-A50K) was prepared under low light conditions prior to use and […] of donor mix was added to all the wells under subdued lighting or green filters. The plates were placed on a shaker for 5 min, sealed, and incubated overnight at room temperature in dark. Plates were read on the Envision (PerkinElmer) using standard AlphaLISA settings.
The percentage of inhibition on EGFR phosphorylation was calculated following equation: % Inhibition=100×(LumHC−LumSample)/(LumHC−LumLC). The low and high controls (LC/HC) are generated from lysate from wells with cells treated with DMSO or […] Staurosporine (BioAustralis, cat #BIA-S1086), […]. IC50 values were calculated by fitting the Curve using XLfit (v5.3.1.3), equation 201: Y=Bottom+(Top−Bottom)/(1+10^((LogIC50−X)*HillSlope)).
(In general: Alpha assays give light when donor and acceptor beads are brought close together.)

Assay [2] concerns the target T2, Ba/F3 ERBB2 A775_G776insYVMA (Homo sapiens, UniProt P04626, DUP772-775, cells depend on it).
T2 construct: Ba/F3 cell lines were engineered to express human ERBB2 or EGFR kinases, rendering the cells IL-3 independent
Briefly: Cell viability assay (CellTiter Glo). Format: cell-based, mouse. The note with it: 72 hours; 300 cells per well, 384-well plates (Table B5); read-out: Cell Line: Ba/F3 ERBB2 A775 G776ins YVMA IC50. How it is done: Cells were treated with compounds, and cell viability was measured as a metric of kinase inhibition.
The Ba/F3 cell line is IL-3-dependent mouse cell line derived from the C3H mouse strain. Ba/F3 cell lines were engineered to express human ERBB2 or EGFR kinases, rendering the cells IL-3 independent. The lines were generated via retroviral transduction utilizing a Moloney murine leukemia virus (MMLV) promoter, and constructs are stably integrated into the cell genome.
Similarly, Ba/F3 cell lines engineered to express EGFR, ERBB2, or ERBB2 mutants were grown, harvested, counted and seeded at 3000 cells per well in 96-well plates for the data sets shown in Tables B3-B4, and seeded at 300 cells per well in 384-well plates for the data set shown in Table B5. A subset of wells contained media only (low control, “LC”).
Table B2 provides the growth media and number of cells seeded per well for the each cell line.
Compounds were dissolved in DMSO and serially diluted. Serially-diluted compound or a DMSO only control (high control, “HC”) was added to the plated cells in each well. […] The final proportion of DMSO never exceeded 0.1%.
Plates were placed in a 37° C., 5% CO2 incubator for 72 hours. Plates were then removed from the incubator and equilibrated for 15 minutes at room temperature. 40 IA of CellTiter Glo reagent (Promega) was added to measure the relative level of metabolically active cells by quantifying intracellular ATP concentrations. Plates were incubated for 30 minutes at room temperature, and luminescence was measured. Percent viability was normalized to a vehicle control only using the following formula: % viability=100×(LumSample−LumLC) (LumHC−LumLC). Graphical curves were fitted using a nonlinear regression model with a sigmoidal dose response.
A general note: ATP-based viability assays read luminescence as a measure of living cells.

Assay [3] deals with T3, phosphorylated ERBB2 (pERBB2) (Homo sapiens, UniProt P04626).
T3 construct: endogenous in cells; host or cells: BT-474
Briefly: Detection of phosphorylated ERBB2 (pERBB2) by ELISA in BT-474 cells. The settings on record: four hours incubation with compound, OD 450 nm. Format: cell-based. How it is done: BT-474 cells were seeded into a 96-well at 2.0*10^4 cells/100 μl/well.
Compounds were dissolved and serially diluted in DMSO. The compounds were then were added, mixed, and incubated for four hours at 37° C., 5% CO2. Compounds were added using four-fold dilutions at final concentrations ranging from 10 μM to 0.01 nM.
Following the four hour incubation with compounds, cell lysates were prepared. Plates were centrifuged for 5 min at 3000 RPM, and supernatant was removed from each well. Cells were washed 3 times by resuspension in 150 μl PBS, followed by centrifugation and removal of the supernatant, as above. […] Cells were incubated with lysis buffer for 1 hour at 4° C., and then stored at −80° C.
Enzyme-linked immunosorbent assays (ELISA) were performed to measure phosphorylated ERBB2 levels. […] The next day, plates were washed with PBS+0.05% Tween20 (PBST). 150 μl of 5% BSA blocking solution was added for 1 hour at room temperature, with shaking. Plates were washed with PBST. Cell lysates were thawed and 100 μl of lysate was added to the ELISA plate. The plates were incubated for 2 hours at room temperature, with shaking. […] Plates were incubated for 1 hour at room temperature, with shaking. Plates were then washed with PBST, and 100 μl TMB substrate solution (R&D Systems, cat #DY999) was added. Plate were incubated in the dark for 20 minutes at room temperature. 50 μl of Stop solution (R&D Systems, cat #DY994) (50 μl) was added to each well and mixed.
Optical density at 450 nm was read on an EnSpire plate reader (Perkin Elmer). The remaining kinase activity by calculated using the following formula: % Relative activity=100×(A450sample−A450LC)/(A450HC−A450LC). The low and high control values (“LC” and “HC”) were generated from lysate from wells without cells or with cells treated with 0.1% DMSO, respectively.
In general terms: ELISA stands for enzyme-linked immunosorbent assay.

T3 sequence (P04626 23-1255): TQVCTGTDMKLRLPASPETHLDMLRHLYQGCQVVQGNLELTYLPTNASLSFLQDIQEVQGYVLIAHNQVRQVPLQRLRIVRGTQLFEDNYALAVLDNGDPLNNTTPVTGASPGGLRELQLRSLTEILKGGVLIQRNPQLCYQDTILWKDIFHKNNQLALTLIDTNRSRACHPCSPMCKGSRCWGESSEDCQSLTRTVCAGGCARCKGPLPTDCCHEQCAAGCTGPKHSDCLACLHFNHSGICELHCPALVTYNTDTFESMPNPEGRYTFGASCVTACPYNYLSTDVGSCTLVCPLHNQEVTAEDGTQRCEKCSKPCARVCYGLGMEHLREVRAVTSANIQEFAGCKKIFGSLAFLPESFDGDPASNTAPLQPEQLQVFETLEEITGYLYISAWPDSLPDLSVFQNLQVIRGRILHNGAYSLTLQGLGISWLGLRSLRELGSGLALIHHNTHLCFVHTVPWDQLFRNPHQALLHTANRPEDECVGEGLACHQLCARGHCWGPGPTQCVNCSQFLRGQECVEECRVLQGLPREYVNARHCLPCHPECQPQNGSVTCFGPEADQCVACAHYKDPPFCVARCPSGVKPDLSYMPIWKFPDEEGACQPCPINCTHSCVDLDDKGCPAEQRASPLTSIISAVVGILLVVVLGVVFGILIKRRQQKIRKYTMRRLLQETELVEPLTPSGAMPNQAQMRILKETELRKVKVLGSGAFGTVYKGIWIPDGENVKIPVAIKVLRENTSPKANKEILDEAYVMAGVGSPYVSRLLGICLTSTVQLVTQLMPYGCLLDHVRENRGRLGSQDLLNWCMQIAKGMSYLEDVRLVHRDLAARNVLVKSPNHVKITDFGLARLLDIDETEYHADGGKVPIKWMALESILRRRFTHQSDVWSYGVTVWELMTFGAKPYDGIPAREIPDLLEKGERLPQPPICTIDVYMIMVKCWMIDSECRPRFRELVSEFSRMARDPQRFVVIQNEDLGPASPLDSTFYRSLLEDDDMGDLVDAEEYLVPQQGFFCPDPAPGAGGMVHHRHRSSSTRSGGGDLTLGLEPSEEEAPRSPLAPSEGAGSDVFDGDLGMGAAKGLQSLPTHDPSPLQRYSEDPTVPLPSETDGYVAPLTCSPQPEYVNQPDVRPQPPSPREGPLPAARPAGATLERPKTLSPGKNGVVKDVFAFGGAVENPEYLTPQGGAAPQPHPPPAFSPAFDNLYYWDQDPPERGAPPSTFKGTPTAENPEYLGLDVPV
T1 sequence (P00533 25-1210): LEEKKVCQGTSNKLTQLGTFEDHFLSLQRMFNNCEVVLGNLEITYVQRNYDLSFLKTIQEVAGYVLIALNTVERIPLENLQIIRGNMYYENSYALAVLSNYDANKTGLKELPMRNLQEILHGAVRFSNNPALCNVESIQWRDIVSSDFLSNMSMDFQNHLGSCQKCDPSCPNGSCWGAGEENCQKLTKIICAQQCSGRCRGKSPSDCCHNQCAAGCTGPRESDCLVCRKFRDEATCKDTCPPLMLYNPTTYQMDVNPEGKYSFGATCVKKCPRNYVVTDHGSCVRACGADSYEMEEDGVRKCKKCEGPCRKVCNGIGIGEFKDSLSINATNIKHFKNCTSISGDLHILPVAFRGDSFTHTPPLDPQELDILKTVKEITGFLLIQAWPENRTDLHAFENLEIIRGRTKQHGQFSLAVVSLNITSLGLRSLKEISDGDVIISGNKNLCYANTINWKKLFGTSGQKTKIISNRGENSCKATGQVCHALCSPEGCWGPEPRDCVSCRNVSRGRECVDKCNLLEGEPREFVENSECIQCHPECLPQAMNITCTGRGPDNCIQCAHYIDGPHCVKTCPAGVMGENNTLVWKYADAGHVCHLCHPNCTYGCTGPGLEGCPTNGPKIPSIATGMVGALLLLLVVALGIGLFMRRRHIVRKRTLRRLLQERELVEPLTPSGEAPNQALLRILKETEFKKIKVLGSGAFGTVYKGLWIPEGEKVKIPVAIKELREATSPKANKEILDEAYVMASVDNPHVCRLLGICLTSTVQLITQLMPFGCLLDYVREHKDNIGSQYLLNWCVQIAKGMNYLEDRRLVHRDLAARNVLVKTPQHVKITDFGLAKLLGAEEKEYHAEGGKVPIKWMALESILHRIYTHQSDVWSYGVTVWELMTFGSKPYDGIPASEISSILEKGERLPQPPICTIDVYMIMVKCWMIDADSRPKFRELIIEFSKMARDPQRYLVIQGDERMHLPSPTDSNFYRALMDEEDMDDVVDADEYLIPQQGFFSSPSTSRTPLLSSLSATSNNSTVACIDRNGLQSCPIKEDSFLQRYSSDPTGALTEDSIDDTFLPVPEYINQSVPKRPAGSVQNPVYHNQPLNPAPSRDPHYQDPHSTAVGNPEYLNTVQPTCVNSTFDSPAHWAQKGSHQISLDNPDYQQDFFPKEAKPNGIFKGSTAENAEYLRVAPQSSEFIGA
T2 sequence (P04626 with tags, fused parts or gaps DUP772-775): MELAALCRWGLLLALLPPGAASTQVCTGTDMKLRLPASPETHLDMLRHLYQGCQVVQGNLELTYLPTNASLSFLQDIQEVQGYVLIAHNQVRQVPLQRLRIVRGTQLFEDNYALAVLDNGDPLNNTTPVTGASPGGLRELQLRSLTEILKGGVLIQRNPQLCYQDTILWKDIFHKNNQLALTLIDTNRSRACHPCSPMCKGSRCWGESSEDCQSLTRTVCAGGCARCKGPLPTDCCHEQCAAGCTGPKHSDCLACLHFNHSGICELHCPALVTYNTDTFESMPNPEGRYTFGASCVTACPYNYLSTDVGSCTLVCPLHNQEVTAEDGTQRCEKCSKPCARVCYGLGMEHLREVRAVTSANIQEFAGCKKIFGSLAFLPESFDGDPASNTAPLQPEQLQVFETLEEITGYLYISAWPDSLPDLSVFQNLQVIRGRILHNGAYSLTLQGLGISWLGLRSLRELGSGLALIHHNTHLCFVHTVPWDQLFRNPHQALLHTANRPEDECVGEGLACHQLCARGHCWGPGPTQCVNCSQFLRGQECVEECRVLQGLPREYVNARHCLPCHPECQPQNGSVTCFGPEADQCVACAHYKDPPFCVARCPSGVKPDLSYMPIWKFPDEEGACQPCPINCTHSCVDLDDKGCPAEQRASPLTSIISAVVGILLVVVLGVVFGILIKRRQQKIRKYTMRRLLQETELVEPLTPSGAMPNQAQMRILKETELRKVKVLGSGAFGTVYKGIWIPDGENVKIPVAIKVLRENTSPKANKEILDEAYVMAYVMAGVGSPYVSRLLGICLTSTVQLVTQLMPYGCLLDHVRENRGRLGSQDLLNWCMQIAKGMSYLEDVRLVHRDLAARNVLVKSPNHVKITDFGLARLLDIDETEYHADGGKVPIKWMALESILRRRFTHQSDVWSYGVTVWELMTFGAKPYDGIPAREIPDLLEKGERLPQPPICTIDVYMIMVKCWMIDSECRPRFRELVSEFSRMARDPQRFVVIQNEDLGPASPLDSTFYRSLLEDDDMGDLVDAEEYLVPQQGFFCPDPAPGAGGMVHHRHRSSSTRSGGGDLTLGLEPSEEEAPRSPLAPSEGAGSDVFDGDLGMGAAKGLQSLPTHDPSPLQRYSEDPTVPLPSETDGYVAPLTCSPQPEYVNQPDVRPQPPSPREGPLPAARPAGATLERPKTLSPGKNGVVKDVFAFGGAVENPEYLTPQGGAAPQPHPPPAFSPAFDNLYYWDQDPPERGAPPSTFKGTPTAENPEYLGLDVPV

With `CC#CC(=O)Nc1cc2c(Nc3ccc(Cc4ccn5ncnc5c4)c(C)c3)ncnc2cc1OCCN(C)C` [Compound 196, N-(4-((4-([1,2,4]triazolo[1,5-a]pyridin-7-ylmethyl)-3-methylphenyl)amino)-7-(2-(dimethylamino)ethoxy)quinazolin-6-yl)but-2-ynamide], the IC50 in assay [1] is 943 nM; in assay [3], 8.36 nM. Besides, the GI50 in assay [2] is 9.96 nM.
For `CC#CC(=O)Nc1cc2c(Nc3ccc(Oc4ccn5ncnc5c4)c(C4CC4)c3)ncnc2cc1OCCN(C)C` [Compound 195, N-{4-[(3-cyclopropyl-4-{[1,2,4]triazolo[1,5-a]pyridin-7-yloxy}phenyl)amino]-7-[2-(dimethylamino)ethoxy]quinazolin-6-yl}but-2-ynamide] the same measures were 7070 nM, 104 nM and 86.8 nM.
Turning to `CC#CC(=O)Nc1cc2c(Nc3ccc(Oc4ccn5ncnc5c4)c(Cl)c3)ncnc2cc1OCCN(C)C` [Compound 200, N-(4-((4-([1,2,4]triazolo[1,5-a]pyridin-7-yloxy)-3-chlorophenyl)amino)-7-(2-(dimethylamino)ethoxy)quinazolin-6-yl)but-2-ynamide], the IC50 in assay [1] was 69.6 nM; in assay [3], 3.7 nM. In assay [2], the GI50 was found to be 2.63 nM.
Take `Cc1cc(Nc2ncnc3cc(OCCN(C)C)c(NC(=O)C#CC(C)(C)C)cc23)ccc1Oc1ccn2ncnc2c1` [Compound 191, N-{7-[2-(dimethylamino)ethoxy]-4-[(3-methyl-4-{[1,2,4]triazolo[1,5-a]pyridin-7-yloxy}phenyl)amino]quinazolin-6-yl}-4,4-dimethylpent-2-ynamide]: the IC50 was > 10000 nM in assay [1] and 93.2 nM in assay [3]. In assay [2], the GI50 amounted to 177 nM.
`CC#CC(=O)Nc1ccc2ncnc(Nc3ccc(Oc4ccc5c(c4)ncn5C)c(C)c3)c2c1` [Compound 212, N-[4-({3-methyl-4-[(1-methyl-1,3-benzodiazol-5-yl)oxy]phenyl}amino)quinazolin-6-yl]but-2-ynamide]: the values for the IC50 in assay [1] and in assay [3] were 377 nM and 52.3 nM, respectively. Moreover, in assay [2], the GI50 was 9.41 nM.
In the case of `CC#CC(=O)Nc1cc2c(Nc3ccc(Oc4ccn5ncnc5c4)c(Cl)c3F)ncnc2cc1OCCN(C)C` [Compound 193, N-(4-((4-([1,2,4]triazolo[1,5-a]pyridin-7-yloxy)-3-chloro-2-fluorophenyl)amino)-7-(2-(dimethylamino)ethoxy)quinazolin-6-yl)but-2-ynamide], the IC50 in assay [1] is 658 nM; in assay [3], 13.8 nM. The GI50 in assay [2] is 9.32 nM.
For `CC#CC(=O)Nc1ccc2ncnc(Nc3ccc(Oc4ccc5c(c4)ncn5C)c(C)c3)c2c1F` [Compound 213, N-[5-fluoro-4-({3-methyl-4-[(1-methyl-1,3-benzodiazol-5-yl)oxy]phenyl}amino)quinazolin-6-yl]but-2-ynamide] the same measures were 579 nM, 32.4 nM and 9.65 nM.
Turning to `CC#CC(=O)Nc1cc2c(Nc3ccc(Oc4ccn5ncnc5c4)c(C)c3)ncnc2cc1OCCN1CCN(C)CC1` [Compound 203, N-{4-[(3-methyl-4-{[1,2,4]triazolo[1,5-a]pyridin-7-yloxy}phenyl)amino]-7-[2-(4-methylpiperazin-1-yl)ethoxy]quinazolin-6-yl}but-2-ynamide], the half-inhibitory concentration (IC50) in assay [1] was found to be 45.5 nM; in assay [3], 6.05 nM. Further, the GI50 in assay [2] came out at 5.11 nM.
In the same order, the values of `CC#CC(=O)Nc1ccc2ncnc(Nc3ccc(Oc4ccc5nccnc5c4)c(C)c3)c2c1` [Compound 211, N-(4-{[3-methyl-4-(quinoxalin-6-yloxy)phenyl]amino}quinazolin-6-yl)but-2-ynamide] are 101 nM, 36.6 nM and 3.2 nM.
In the same order, the values of `Cc1cc(Nc2ncnc3cc(OCCN(C)C)c(NC(=O)C#CC4(C)CC4)cc23)ccc1Oc1ccn2ncnc2c1` [Compound 190, N-{7-[2-(dimethylamino)ethoxy]-4-[(3-methyl-4-{[1,2,4]triazolo[1,5-a]pyridin-7-yloxy}phenyl)amino]quinazolin-6-yl}-3-(1-methylcyclopropyl)prop-2-ynamide] are 1220 nM, 24.9 nM and 34.5 nM.
For `CCOc1cc2ncnc(Nc3ccc(Oc4ccn5ncnc5c4)c(C)c3)c2cc1NC(=O)C#CCN1CCN(C)CC1` [Compound 208, N-{7-ethoxy-4-[(3-methyl-4-{[1,2,4]triazolo[1,5-a]pyridin-7-yloxy}phenyl)amino]quinazolin-6-yl}-4-(4-methylpiperazin-1-yl)but-2-ynamide triformate] the same measures were 2260 nM, 1180 nM and > 500 nM.
With `CC#CC(=O)Nc1cc2c(Nc3ccc(Cc4ccn5ncnc5c4)c(C)c3)ncnc2cc1OCCCN(C)C` [Compound 189, N-{7-[3-(dimethylamino)propoxy]-4-[(3-methyl-4-{[1,2,4]triazolo[1,5-a]pyridin-7-ylmethyl}phenyl)amino]quinazolin-6-yl}but-2-ynamide], the concentration for half-maximal inhibition (IC50) in assay [1] came to 106 nM; in assay [3] it was 1.87 nM. For the same compound, the GI50 in assay [2] turned out to be 2.47 nM.
With `CC#CC(=O)Nc1cc2c(Nc3ccc(Oc4ccn5ncnc5c4)c(C)c3)ncnc2cn1` [Compound 199, N-(4-((4-([1,2,4]triazolo[1,5-a]pyridin-7-yloxy)-3-methylphenyl)amino)pyrido[3,4-d]pyrimidin-6-yl)but-2-ynamide], the 50% inhibitory concentration (IC50) in assay [1] came out at 57.5 nM; in assay [3], 4.7 nM. The GI50 in assay [2] is 2.51 nM.
For `CC#CC(=O)Nc1cc2c(Nc3ccc(Cc4ccn5ncnc5c4)c(F)c3)ncnc2cc1OCCN(C)C` [Compound 202, N-{7-[2-(dimethylamino)ethoxy]-4-[(3-fluoro-4-{[1,2,4]triazolo[1,5-a]pyridin-7-ylmethyl}phenyl)amino]quinazolin-6-yl}but-2-ynamide], the figures for the IC50 in assay [1] and in assay [3] were 543 nM and 21.8 nM, respectively. Further, the GI50 in assay [2] is 49.4 nM.
